In paper PMC7294809, “Discovery of an Allosteric Binding Site in Kinetoplastid Methionyl-tRNA Synthetase” (ACS Infectious Diseases, 2020):
≈ marks a conversion by molar mass, not a printed value. Read-outs that look alike come from different tables or passages of the source. Marks after values point to notes of the source that are not given here. Each block holds one molecule with its values, some of them ahead of it.

How the values were obtained:
[1] = test system: leishmaniasis animal model; set-up: method as in PMID 28967262; conditions: cited from earlier work
[2] = target: T1, LdMetRS (Leishmania donovani, UniProt A0A3Q8IBX2); set-up: method as in PMID 28967262; conditions: cited from earlier work
T1 sequence (A0A3Q8IBX2 entry or part of it): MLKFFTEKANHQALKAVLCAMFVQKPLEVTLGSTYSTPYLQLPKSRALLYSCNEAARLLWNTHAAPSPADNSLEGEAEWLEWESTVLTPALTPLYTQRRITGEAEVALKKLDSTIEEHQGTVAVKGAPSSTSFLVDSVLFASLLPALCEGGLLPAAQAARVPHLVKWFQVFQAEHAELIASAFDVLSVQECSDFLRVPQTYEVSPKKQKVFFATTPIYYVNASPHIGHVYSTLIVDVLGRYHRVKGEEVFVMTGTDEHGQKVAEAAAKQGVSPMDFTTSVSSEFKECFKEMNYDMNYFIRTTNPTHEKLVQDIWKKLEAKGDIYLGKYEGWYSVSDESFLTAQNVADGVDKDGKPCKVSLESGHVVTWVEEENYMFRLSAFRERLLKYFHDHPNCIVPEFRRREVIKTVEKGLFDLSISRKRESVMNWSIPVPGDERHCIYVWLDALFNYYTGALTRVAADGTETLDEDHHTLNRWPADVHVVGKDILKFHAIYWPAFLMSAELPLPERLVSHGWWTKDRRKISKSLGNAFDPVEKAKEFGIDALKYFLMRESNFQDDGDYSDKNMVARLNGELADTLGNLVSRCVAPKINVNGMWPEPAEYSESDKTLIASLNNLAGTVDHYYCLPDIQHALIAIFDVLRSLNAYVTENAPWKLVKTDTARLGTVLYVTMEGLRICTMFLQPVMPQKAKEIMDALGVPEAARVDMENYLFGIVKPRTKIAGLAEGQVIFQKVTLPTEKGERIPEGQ

[3] = target: T2, TcMetRS (Trypanosoma cruzi, UniProt Q4D6H2); assay: TcMetRS BIOMOL Green biochemical assay, 10-point dose response
T2 sequence (Q4D6H2 entry or part of it): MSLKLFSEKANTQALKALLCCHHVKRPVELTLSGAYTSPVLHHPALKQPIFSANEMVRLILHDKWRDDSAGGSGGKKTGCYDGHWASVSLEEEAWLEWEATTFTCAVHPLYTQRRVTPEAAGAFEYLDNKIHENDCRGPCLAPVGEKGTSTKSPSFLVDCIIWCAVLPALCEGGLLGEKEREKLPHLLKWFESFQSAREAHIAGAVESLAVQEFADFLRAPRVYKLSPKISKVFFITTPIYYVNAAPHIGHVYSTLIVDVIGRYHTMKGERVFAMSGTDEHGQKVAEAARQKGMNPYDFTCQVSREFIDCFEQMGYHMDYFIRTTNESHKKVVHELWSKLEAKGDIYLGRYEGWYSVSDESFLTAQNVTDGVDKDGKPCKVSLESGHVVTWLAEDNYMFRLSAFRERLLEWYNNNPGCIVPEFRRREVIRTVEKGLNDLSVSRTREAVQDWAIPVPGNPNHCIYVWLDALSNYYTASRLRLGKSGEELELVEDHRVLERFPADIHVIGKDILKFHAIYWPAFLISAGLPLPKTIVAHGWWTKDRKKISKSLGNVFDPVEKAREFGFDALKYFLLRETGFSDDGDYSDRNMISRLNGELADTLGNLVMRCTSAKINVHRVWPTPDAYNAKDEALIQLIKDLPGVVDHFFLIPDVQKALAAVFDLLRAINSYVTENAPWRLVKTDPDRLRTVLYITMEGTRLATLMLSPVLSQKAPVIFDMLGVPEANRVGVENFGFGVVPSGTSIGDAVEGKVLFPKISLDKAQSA

[4] = target: T1, LdMetRS; conditions: read-out: LdMetRS Km app; cited from earlier work
[5] = Aqueous solubility, filtration-based method; type: physicochemical; conditions: aqueous buffer, kinetic from dmso stock; phosphate-buffered saline pH 7.4, 24 h, 25 °C
Description: Solubility was assessed using a filtration-based method. Test compounds were dissolved in DMSO to give 10 mM solutions. Five microliters of the 10 mM solution was added to 195 μL of phosphate-buffered saline at pH 7.4 and mixed for 24 h (rotary mixing, 900 rpm, 25 °C) excluding light. After mixing, the samples were filtered to remove any undissolved material using a Millipore Multiscreen HTS filter. The filtrate was analyzed for dissolved drug compounds using UHPLC.

[6] = target: T1, LdMetRS; assay: LdMetRS BIOMOL Green biochemical assay, 10-point dose response
[7] = CHI LogD measurement; type: physicochemical; conditions: chromatographic hydrophobicity index
Description: CHI LogD measurements were performed as described elsewhere.[29] cLogP measurements were calculated using StarDrop (Optibrium).

[8] = target: T1, LdMetRS; assay: LdMetRS mode of inhibition studies; type: biochemical; conditions: for Ki / h (inhibitor Hill slope) / β (fraction of activity remaining) / Vmax / n (substrate Hill slope) / Ks: LdMetRS; for Ki: fit to eq 7, ± SE of fit; for Vmax: global fit parameter; for n (substrate Hill slope) / Ks: global fit; for Ks: substrate dissociation constant
Description: Subsequent full mode of inhibition studies with compounds from the MetRS02 series were more challenging due to the partial inhibition profiles of some compounds resulting in poor global fits to the standard competitive, uncompetitive, and noncompetitive inhibition models (eqs 3, 4, and 5, respectively). In addition, during the enzymatic characterization of methionine binding to LdMetRS, a Hill slope of <1 was obtained (and was hypothesized to be due to conformational selection).[6] This low Hill slope is also not factored into the standard inhibition models described (eqs 3–5). New models with additional parameters to account for the partial inhibition and low methionine Hill slope were therefore required (eqs 6 and 7). Using these modified equations, the mode of inhibition of compound 27 was carried out by testing LdMetRS enzyme activity under varying substrate concentrations at various inhibitor concentrations (Figure 5). The cooperative, noncompetitive, partial inhibition model (eq 7) was confirmed as the best fit (using F-test analyses), with a noncompetitive mode of inhibition consistent with binding in an allosteric binding pocket. The returned fit parameters are shown in Table 4 and are presented with the standard error (SE) of the fit to eq 7.
(§1) Using GraFit v6.0 (Erithacus Software), each data set was globally fitted to standard competitive, uncompetitive, and noncompetitive inhibition models (eqs 3–5).
(§2) Equation 5 (noncompetitive inhibition model): [drawing 5] 5 On the basis of poor data fits to the above models, partial inhibition and cooperativity parameters were introduced into the uncompetitive and noncompetitive models as previously described by Skovpen et al.[30],[31] Mode of inhibition data were globally fitted to these modified equations (eqs 6 and 7).
(§3) Equation 7 (cooperative, noncompetitive, partial inhibition model): [drawing 7] 7 v is the velocity, Vmax is the maximum velocity, [S] is the substrate concentration, [I] is the inhibitor concentration, Ki is the inhibitor constant, Ks is the substrate dissociation constant, n is the substrate Hill slope, h is the inhibitor Hill slope, and β is the proportionality constant (fraction of activity remaining when the enzyme is fully saturated with inhibitor).
(§4) If more than one model appeared possible, then data were fitted to both and examined for significance using the F-test function in GraFit.

[9] = target: T2, TcMetRS; assay: TcMetRS mode of inhibition studies; type: biochemical; conditions: for Ki / h (inhibitor Hill slope) / β (fraction of activity remaining) / Vmax / n (substrate Hill slope) / Ks: TcMetRS; for Ki: fit to eq 7, ± SE of fit; for Vmax: global fit parameter; for n (substrate Hill slope) / Ks: global fit; for Ks: substrate dissociation constant
Description: It was therefore feasible to perform TcMetRS mode inhibition studies with this compound. These studies, carried out as previously described for LdMetRS, confirm a best fit to the same partial, cooperative, noncompetitive inhibition model (eq 7; Supporting Information Figure 6 and Table 4).
as §1, §2, §3, §4

IC50 ([3]; 50 μM methionine, 100 μM ATP, 80 nM TcMetRS, read-out: TcMetRS pIC50 (converted)): 0.0398 µM | IC50 ([3]; 50 μM methionine, 100 μM ATP, 80 nM TcMetRS, tight binding limit likely reached, read-out: TcMetRS IC50): 0.038 µM
Compound: O=c1nc(NCCCNCc2cc3c(Cl)cc(Cl)cc3[nH]2)[nH]c2ccccc12 [DDD806905, reference compound]
in vivo efficacy [1]: failed to show in vivo efficacy | LdMetRS pIC50 [2]: 7.0

Compound: CSCC[C@H](N)C(=O)O [methionine]
Km [4]: 173 µM

Compound: COC(=O)CNc1nc(Nc2ccc(F)c(F)c2)nc2c1cnn2C [Compound 27]
solubility at 24 h [5]: 5.5 µM (≈ 1.92 µg/mL) | IC50 ([6]; LdMetRS pIC50, 50 µM ATP and 50 µM methionine): 1.41e-06 M | IC50 ([6]; LdMetRS pIC50, 50 μM methionine, 100 μM ATP, 50 nM LdMetRS, pIC50 = −log IC50 (M)): 1.26e-06 M | IC50 ([6]; LdMetRS pIC50, both substrate concentrations increased to 500 µM): 1.41e-06 M | IC50 shift on increasing substrate concentrations ([6]; methionine and ATP increased from 50 μM each to 500 μM, preliminary data): no IC50 shifts | Emax ([6]; read-out: LdMetRS Maximum % Inhibition Plateau): 92.9% | chromatographic logD [7]: 2.17 | IC50 [3]: > 100 µM | Emax ([3]; read-out: TcMetRS Maximum % Inhibition): 44.2 ± 6.5% | Ki ([8]; varied substrate ATP): 1.58 ± 0.04 µM | Ki ([8]; varied substrate methionine): 2.06 ± 0.04 µM | h (inhibitor Hill slope) ([8]; substrate ATP, eq 7): 1.10 ± 0.02 | β (fraction of activity remaining) ([8]; substrate ATP, eq 7): 0.027 ± 0.005 | Vmax ([8]; substrate ATP, eq 7): 0.324 ± 0.004 μM Piformed/min | n (substrate Hill slope) ([8]; substrate ATP, eq 7): 1.07 ± 0.02 ^b | Ks ([8]; substrate ATP, eq 7): 21.1 ± 0.6 µM | h (inhibitor Hill slope) ([8]; substrate methionine, eq 7): 1.05 ± 0.02 | β (fraction of activity remaining) ([8]; substrate methionine, eq 7): 0.060 ± 0.005 | Vmax ([8]; substrate methionine, eq 7): 0.388 ± 0.009 μM Piformed/min | n (substrate Hill slope) ([8]; substrate methionine, eq 7): 0.50 ± 0.01 | Ks ([8]; substrate methionine, eq 7): 327 ± 35 µM | mode of inhibition, LdMetRS ([8]; best fit by F-test, eq 7): noncompetitive | fold difference in Ki, TcMetRS versus LdMetRS ([9]; Ki from mode of inhibition studies, Table 4): 5–7 fold | Ki ([9]; varied substrate ATP): 11.3 ± 1.2 µM | Ki ([9]; varied substrate methionine): 10.8 ± 0.7 µM | h (inhibitor Hill slope) ([9]; substrate ATP, eq 7): 1.27 ± 0.14 | β (fraction of activity remaining) ([9]; substrate ATP, eq 7): 0.48 ± 0.02 | Vmax ([9]; substrate ATP, eq 7): 0.287 ± 0.006 μM Piformed/min | n (substrate Hill slope) ([9]; substrate ATP, eq 7): 1.07 ± 0.03 ^b | Ks ([9]; substrate ATP, eq 7): 40.5 ± 2.0 µM | h (inhibitor Hill slope) ([9]; substrate methionine, eq 7): 1.48 ± 0.11 | β (fraction of activity remaining) ([9]; substrate methionine, eq 7): 0.65 ± 0.01 | Vmax ([9]; substrate methionine, eq 7): 0.429 ± 0.016 μM Piformed/min | n (substrate Hill slope) ([9]; substrate methionine, eq 7): 0.42 ± 0.01 | Ks ([9]; substrate methionine, eq 7): 1340 ± 237 µM | mode of inhibition, TcMetRS ([9]; best fit, eq 7): noncompetitive
